# Experimental data as given in PubChem BioAssay AID2060495 (Molecular Pharmacology Branch, DTP, NCI, 2025).
# Test system: 521955-158-R2-J5-PDC complex spheroid viability
# Experiment: Anticancer human tumor 521955-158-R2-J5-PDC patient-derived pancreatic carcinoma cell line growth inhibition [GQUAD]
# Details: for IC50: curve of first compound; for viability, T/C: stronger effect = lower value
# Outline: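 Viability of tumor cells grown as complex spheroids with endothelial and stromal cells, exposed to drug combinations. Top concentration at or near clinical Cmax (else 10 microM), diluted in half-log increments.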
# [1] = second compound 0.0316 µM, first compound 0.0316 µM
# [2] = second compound 0.0316 µM, first compound 0.1 µM
# [3] = second compound 0.0316 µM, first compound 0.316 µM
# [4] = second compound 0.0316 µM, first compound 1 µM
# [5] = second compound 0.0316 µM, first compound 3.16 µM
# [6] = second compound 0.0316 µM, first compound 10 µM
# [7] = second compound 0.1 µM, first compound 0.0316 µM
# [8] = second compound 0.1 µM, first compound 0.1 µM
# [9] = second compound 0.1 µM, first compound 0.316 µM
# [10] = second compound 0.1 µM, first compound 1 µM
# [11] = second compound 0.1 µM, first compound 3.16 µM
# [12] = second compound 0.1 µM, first compound 10 µM
# [13] = second compound 0.316 µM, first compound 0.0316 µM
# [14] = second compound 0.316 µM, first compound 0.1 µM
# [15] = second compound 0.316 µM, first compound 0.316 µM
# [16] = second compound 0.316 µM, first compound 1 µM
# [17] = second compound 0.316 µM, first compound 3.16 µM
# [18] = second compound 0.316 µM, first compound 10 µM
# [19] = second compound 1 µM, first compound 0.0316 µM
# [20] = second compound 1 µM, first compound 0.1 µM
# [21] = second compound 1 µM, first compound 0.316 µM
# [22] = second compound 1 µM, first compound 1 µM
# [23] = second compound 1 µM, first compound 3.16 µM
# [24] = second compound 1 µM, first compound 10 µM
# [25] = second compound 3.16 µM, first compound 0.0316 µM
# [26] = second compound 3.16 µM, first compound 0.1 µM
# [27] = second compound 3.16 µM, first compound 0.316 µM
# [28] = second compound 3.16 µM, first compound 1 µM
# [29] = second compound 3.16 µM, first compound 3.16 µM
# [30] = second compound 3.16 µM, first compound 10 µM
# [31] = second compound 10 µM, first compound 0.0316 µM
# [32] = second compound 10 µM, first compound 0.1 µM
# [33] = second compound 10 µM, first compound 0.316 µM
# [34] = second compound 10 µM, first compound 1 µM
# [35] = second compound 10 µM, first compound 3.16 µM
# [36] = second compound 10 µM, first compound 10 µM
# 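Also: spheroids exposed to agents for one week before reading.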
# 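For viability, T/C in this document: 100% = DMSO vehicle control viability.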
structure (smiles),measurement,setting,value
Nc1ccn(C2OC(CO)C(O)C2(F)F)c(=O)n1 (stereo unspecified) + Cc1[nH]c2ccc(F)cc2c1-c1nc2c3cccnc3c3ncccc3c2[nH]1,IC50,second compound 0.0316 µM,421 nM
same,IC50,second compound 0.1 µM,424 nM
same,IC50,second compound 0.316 µM,436 nM
same,IC50,second compound 1 µM,449 nM
same,IC50,second compound 3.16 µM,485 nM
same,IC50,second compound 10 µM,467 nM
same,"viability, T/C",[1],78.3%
same,"viability, T/C",[2],83.1%
same,"viability, T/C",[3],61.9%
same,"viability, T/C",[4],13.8%
same,"viability, T/C",[5],10.5%
same,"viability, T/C",[6],7.49%
same,"viability, T/C",[7],77.1%
same,"viability, T/C",[8],79.2%
same,"viability, T/C",[9],58.9%
same,"viability, T/C",[10],22.3%
same,"viability, T/C",[11],10.8%
same,"viability, T/C",[12],6.82%
same,"viability, T/C",[13],89%
same,"viability, T/C",[14],75.3%
same,"viability, T/C",[15],64.1%
same,"viability, T/C",[16],15%
same,"viability, T/C",[17],10.6%
same,"viability, T/C",[18],7.06%
same,"viability, T/C",[19],88.9%
same,"viability, T/C",[20],80.4%
same,"viability, T/C",[21],61.6%
same,"viability, T/C",[22],25.1%
same,"viability, T/C",[23],9.92%
same,"viability, T/C",[24],7.24%
same,"viability, T/C",[25],92.8%
same,"viability, T/C",[26],93.3%
same,"viability, T/C",[27],66.4%
same,"viability, T/C",[28],21.8%
same,"viability, T/C",[29],12.9%
same,"viability, T/C",[30],10.2%
same,"viability, T/C",[31],109%
same,"viability, T/C",[32],104%
same,"viability, T/C",[33],61.7%
same,"viability, T/C",[34],25.3%
same,"viability, T/C",[35],8.99%
same,"viability, T/C",[36],7.65%
C=CCn1c(=O)c2cnc(Nc3ccc(N4CCN(C)CC4)cc3)nc2n1-c1cccc(C(C)(C)O)n1 + Cc1[nH]c2ccc(F)cc2c1-c1nc2c3cccnc3c3ncccc3c2[nH]1,IC50,second compound 0.0316 µM,217 nM
same,IC50,second compound 0.1 µM,182 nM
same,IC50,second compound 0.316 µM,177 nM
same,IC50,second compound 1 µM,175 nM
same,IC50,second compound 3.16 µM,159 nM
same,IC50,second compound 10 µM,192 nM
same,"viability, T/C",[1],103%
same,"viability, T/C",[2],84.9%
same,"viability, T/C",[3],33.1%
same,"viability, T/C",[4],14.6%
same,"viability, T/C",[5],12.6%
same,"viability, T/C",[6],12.1%
same,"viability, T/C",[7],95.1%
same,"viability, T/C",[8],75.8%
same,"viability, T/C",[9],25.8%
same,"viability, T/C",[10],15.8%
same,"viability, T/C",[11],11.1%
same,"viability, T/C",[12],10.5%
same,"viability, T/C",[13],79.9%
same,"viability, T/C",[14],66.6%
same,"viability, T/C",[15],33.2%
same,"viability, T/C",[16],15.2%
same,"viability, T/C",[17],13.2%
same,"viability, T/C",[18],12.1%
same,"viability, T/C",[19],84.1%
same,"viability, T/C",[20],75.4%
same,"viability, T/C",[21],23.4%
same,"viability, T/C",[22],12.8%
same,"viability, T/C",[23],12.6%
same,"viability, T/C",[24],10.4%
same,"viability, T/C",[25],77%
same,"viability, T/C",[26],60.4%
same,"viability, T/C",[27],34.8%
same,"viability, T/C",[28],15%
same,"viability, T/C",[29],15.3%
same,"viability, T/C",[30],19.6%
same,"viability, T/C",[31],68.7%
same,"viability, T/C",[32],68.3%
same,"viability, T/C",[33],36.5%
same,"viability, T/C",[34],18.2%
same,"viability, T/C",[35],14%
same,"viability, T/C",[36],15.6%
Cc1[nH]c2ccccc2c1CCNCc1ccc(/C=C/C(=O)NO)cc1 + Cc1cnc(CNC(=O)c2c(=O)c3ccc(N4CCCN(C)CC4)nc3n3c2sc2ccccc23)cn1,IC50,second compound 0.0316 µM,71.3 nM
same,IC50,second compound 0.1 µM,35.1 nM
same,IC50,second compound 0.316 µM,< 0.999 nM
same,IC50,second compound 1 µM,< 0.999 nM
same,IC50,second compound 3.16 µM,< 0.999 nM
same,IC50,second compound 10 µM,< 0.999 nM
same,"viability, T/C","second compound 0.0316 µM, first compound 0.000999 µM",76.2%
same,"viability, T/C","second compound 0.0316 µM, first compound 0.00316 µM",66.1%
same,"viability, T/C","second compound 0.0316 µM, first compound 0.00999 µM",92.3%
same,"viability, T/C",[1],75.6%
same,"viability, T/C","second compound 0.0316 µM, first compound 0.0999 µM",39.2%
same,"viability, T/C",[3],5.94%
same,"viability, T/C","second compound 0.1 µM, first compound 0.000999 µM",64.7%
same,"viability, T/C","second compound 0.1 µM, first compound 0.00316 µM",57.7%
same,"viability, T/C","second compound 0.1 µM, first compound 0.00999 µM",57.1%
same,"viability, T/C",[7],54%
same,"viability, T/C","second compound 0.1 µM, first compound 0.0999 µM",33.2%
same,"viability, T/C",[9],2.12%
same,"viability, T/C","second compound 0.316 µM, first compound 0.000999 µM",26.8%
same,"viability, T/C","second compound 0.316 µM, first compound 0.00316 µM",31.2%
same,"viability, T/C","second compound 0.316 µM, first compound 0.00999 µM",34%
same,"viability, T/C",[13],37.1%
same,"viability, T/C","second compound 0.316 µM, first compound 0.0999 µM",26.6%
same,"viability, T/C",[15],1.88%
same,"viability, T/C","second compound 1 µM, first compound 0.000999 µM",16.8%
same,"viability, T/C","second compound 1 µM, first compound 0.00316 µM",21.2%
same,"viability, T/C","second compound 1 µM, first compound 0.00999 µM",18.5%
same,"viability, T/C",[19],20.1%
same,"viability, T/C","second compound 1 µM, first compound 0.0999 µM",18.6%
same,"viability, T/C",[21],0.1%
same,"viability, T/C","second compound 3.16 µM, first compound 0.000999 µM",12.1%
same,"viability, T/C","second compound 3.16 µM, first compound 0.00316 µM",14.4%
same,"viability, T/C","second compound 3.16 µM, first compound 0.00999 µM",14.7%
same,"viability, T/C",[25],13.9%
same,"viability, T/C","second compound 3.16 µM, first compound 0.0999 µM",6.38%
same,"viability, T/C",[27],0.11%
same,"viability, T/C","second compound 10 µM, first compound 0.000999 µM",9.65%
same,"viability, T/C","second compound 10 µM, first compound 0.00316 µM",11.8%
same,"viability, T/C","second compound 10 µM, first compound 0.00999 µM",14.8%
same,"viability, T/C",[31],13.8%
same,"viability, T/C","second compound 10 µM, first compound 0.0999 µM",5.03%
same,"viability, T/C",[33],0.18%
